Assay results as given in patent publication US5401490A, “Markers of tissue hypoxia” (priority 1989, dated 1995).

Columns and labels:
EMT-6 cells = assay: Cell uptake / binding to the acid insoluble (macromolecular) fraction of EMT-6 cells; type: cell-based, mouse
Method: The binding of IAZG to the acid precipitable fraction of EMT-6 cells in vitro is dependent on the degree of hypoxia as shown in FIG. 4. […] To assess the relative efficiency of uptake of the test compounds, the initial binding rate in terms of pmol/10^6 cells/h was determined at several different concentrations. […] This is the highest binding rate measured to date for any 2-nitroimidazole derivative and is 4 to 8 times greater than MISO.
Initial binding rates were measured (FIG. 8) at four concentrations of IAZA (3, 10, 30 and 100 μM), using normally oxygenated and hypoxic EMT-6 cell cultures as described previously (13). Similar studies at the same concentration of misonidazole were used as controls.
EXAMPLE 8 CELL UPTAKE STUDIES
The uptake of test drugs into EMT-6 cell suspensions, under oxic and hypoxic conditions, was determined as described previously (18, 13). The data were analyzed in terms of drug binding to the macromolecular fraction at various times and at various test drug concentrations (FIG. 4). The initial binding rate, in units of pmol/10^6 cells per hour for each drug, was determined from the binding data (FIG. 5).

[1] = Blood clearance and whole body elimination of radioactivity; type: in vivo, BALB/C mice; settings: for major route of excretion: high kidney radioactivity at short time periods; for blood clearance / excretion of radioactivity from the body: i.v. bolus, ^125 I-labelled
Text: Each data point represents the mean of 6 animals.
Tables 1 and 2 show the percent of injected IAZG and IAZA respectively per gram of wet tissue for selected tissues excised from BALB/C mice bearing EMT-6 tumors. This tumor model is known to have a high hypoxic fraction (0.33) (16). […] Hepatobiliary excretion may play a role in blood clearance as evidenced by elevated liver radioactivity and the appearance of activity in the intestine. Some oxidative or reductive metabolites of the 2-nitroimidazoles may also become bound to liver tissue, as was postulated in an in vivo study with ^14 C-MISO (6). This supposition is supported by the persistence of liver radioactivity at longer time periods. […] At 8 and 24 hours thyroid levels of IAZG are 7.2 and 30.9% of the total body activity and for IAZA they are 7.9 and 33.8% of total body activity.
EXAMPLE 11 TISSUE DISTRIBUTION AND EXCRETION
Tumor propagation of EMT-6 tumors in BALB/C mice was accomplished by subcutaneous injection of a cell suspension (10^5 cells in 0.1 mL) as described previously (10). Tumors reached about 10 mm in diameter (≈0.5 g) at 12 to 14 days, at which time each animal was given a bolus intravenous injection of ^125 I-labelled test drug via the tail vein (40 to 60 kBq in 0.1 mL). At set time periods the animals were asphyxiated with CO2 and exsanguinated via cardiac puncture. Tissues were dissected, weighed wet into vials and counted for ^125 I-activity. Whole-body activity was determined by summation of total activity in tissues and in residual carcass, and blood activity was determined from the blood aliquot, assuming blood to be 6.5% of the total body weight.

EMT-6 tumor tissue = assay: Imaging study using ^125 I-IAZA; type: in vivo

In the case of `O=[N+]([O-])c1nccn1[C@@H]1O[C@H](CI)[C@H](O)[C@H](O)[C@H]1O` [IAZG, 1-(6-iodo-6-deoxy-β-D-galactopyranosyl)-2-nitroimidazole], the binding with time (EMT-6 cells) is reported as “appears to increase linearly with time”, the “oxygen dependence of uptake/binding” value (EMT-6 cells; 10 μM, various oxygen levels) is reported as “greatest uptake of IAZG occurs under nitrogen incubation with a decrease in the binding rate as the oxygen concentration to which the cells are exposed is increased” and the “initial binding rate, comparison” value (EMT-6 cells; hypoxic, vs IAZA or MISO) is reported as “higher binding rate than IAZA or MISO”. The “initial clearance rates, comparison” value ([1]; blood and whole body, IAZG vs IAZA) was “greater for IAZG than IAZA”, the “major route of excretion” value [1] was “via the urine” and the blood clearance [1] was “initial rapid blood clearance”. The “excretion of radioactivity from the body” value [1] was “rapid excretion of radioactivity from the body”.
In the case of `O=[N+]([O-])c1nccn1[C@@H]1O[C@H](CI)[C@@H](O)[C@@H]1O` [IAZA, 1-(5-iodo-5-deoxy-β-D-arabino-furanosyl)-2-nitroimidazole], the “major route of excretion” value [1] is reported as “via the urine”, the blood clearance [1] is reported as “initial rapid blood clearance” and the “excretion of radioactivity from the body” value [1] is reported as “rapid excretion of radioactivity from the body”. The “delineation of tumor tissue in imaging” value (EMT-6 tumor tissue) was “clearly delineated from surrounding tissue”.
